Assay results published in ChEMBL document CHEMBL5154664, “Imidazolylacetophenone oxime-based multifunctional neuroprotective agents: Discovery and structure-activity relationships” (Eur J Med Chem, 2022).
≈ marks a conversion by molar mass, not a printed value. Calls of active or inactive are those of the source. No cut-off for these calls is given here.

Columns and labels:
[1] = Cytotoxicity against LPS induced mouse BV-2 cells assessed as inhibition in cell viability at 20 uM measured by MTT assay; conditions: BV-2 cells
[2] = Inhibition of LPS induced NO production in mouse BV-2 cells by Griess reagent based analysis; format: functional, cell-based
BV-2 [3] = experiment: Antiinflammatory activity in mouse BV-2 cells assessed as suppression of LPS-induced IL-1beta secretion at 10 uM and measured after 24 hrs by ELISA; format: functional, cell-based
[4] = molecular target: Prostaglandin G/H synthase 2 (Homo sapiens) (UniProt P35354); experiment: Inhibition of human COX2 at 40 uM by microplate reader assay
Prostaglandin G/H synthase 2 (Homo sapiens), sequence (P35354 whole entry, looked up): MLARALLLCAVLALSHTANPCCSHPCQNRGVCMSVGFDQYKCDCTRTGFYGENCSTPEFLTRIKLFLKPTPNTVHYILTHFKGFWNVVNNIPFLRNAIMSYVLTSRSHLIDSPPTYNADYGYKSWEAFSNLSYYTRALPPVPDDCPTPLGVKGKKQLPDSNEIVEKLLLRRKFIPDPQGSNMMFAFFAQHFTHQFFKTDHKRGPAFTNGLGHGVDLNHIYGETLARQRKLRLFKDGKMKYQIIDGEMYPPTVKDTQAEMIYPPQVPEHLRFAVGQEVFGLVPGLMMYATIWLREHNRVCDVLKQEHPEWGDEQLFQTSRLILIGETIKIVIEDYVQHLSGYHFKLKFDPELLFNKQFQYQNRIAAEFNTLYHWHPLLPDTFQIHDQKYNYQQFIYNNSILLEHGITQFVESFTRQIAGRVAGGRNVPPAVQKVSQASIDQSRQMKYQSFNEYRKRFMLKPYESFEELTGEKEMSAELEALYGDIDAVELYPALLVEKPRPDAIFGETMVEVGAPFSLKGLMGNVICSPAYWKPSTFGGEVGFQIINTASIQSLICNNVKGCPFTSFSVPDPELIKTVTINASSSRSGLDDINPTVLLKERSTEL

PC-12 [5] = experiment: Anti-ferroptotic activity against RSL-3 induced ferroptosis in rat PC12 cells assessed as increase in cell viability at 10 uM measured after 24 hrs by MTT assay relative to control; format: functional
BV-2 [6] = experiment: Antiinflammatory activity in mouse BV-2 cells assessed as reduction in LPS-induced iNOS expression at 0.1 to 5 uM by Western blot analysis relative to control; format: functional, cell-based; conditions: dose 0.1-5 µM, DDE = dose-dependent effect
PC-12 [7] = experiment: Neuroprotective activity against H2O2-induced neuronal death in rat PC12 cells assessed as increase in cell viability at 10 uM measured after 24 hrs by MTT assay relative to control; format: functional
[8] = Metal chelating activity assessed as compound Ca2+ complex formation by measuring maximum absorption wavelength shift at 25 uM incubated for 30 mins by UV-visible spectrophotometry
[9] = Antioxidant activity assessed as DPPH radical scavenging activity at 20 uM incubated for 30 mins under dark condition by microplate reader based assay; format: functional
BV-2 [10] = experiment: Antiinflammatory activity in mouse BV-2 cells assessed as reduction in LPS-induced COX-2 expression at 0.5 uM by Western blot analysis relative to control; format: functional, cell-based
[11] = Metal chelating activity assessed as compound Mg2+ complex formation by measuring maximum absorption wavelength shift at 25 uM incubated for 30 mins by UV-visible spectrophotometry
[12] = Permeability of compound by PAMPA-BBB assay; format: ADME; conditions: read-out: permeability
[13] = Metal chelating activity assessed as Cu2+-compound complex formation at compound:Cu2+ molar ratio of 1:1 to 1:4 at 25 uM incubated for 30 mins by UV-visible spectrophotometry
[14] = Solubility of the compound by UV-spectrometry; format: physicochemical
[15] = Metal chelating activity assessed as compound Fe2+ complex formation by measuring maximum absorption wavelength shift at 25 uM incubated for 30 mins by UV-visible spectrophotometry
[16] = molecular target: Acetylcholinesterase (Electrophorus electricus) (UniProt O42275); experiment: Inhibition of electric eel AChE at 20 uM using acetylthiocholine iodide as substrate preincubated with enzyme for 20 mins followed by substrate addition and measured after 45 mins by Ellman's method; conditions: time 65.0 min
Acetylcholinesterase (Electrophorus electricus), sequence (O42275 24-633 limits assumed): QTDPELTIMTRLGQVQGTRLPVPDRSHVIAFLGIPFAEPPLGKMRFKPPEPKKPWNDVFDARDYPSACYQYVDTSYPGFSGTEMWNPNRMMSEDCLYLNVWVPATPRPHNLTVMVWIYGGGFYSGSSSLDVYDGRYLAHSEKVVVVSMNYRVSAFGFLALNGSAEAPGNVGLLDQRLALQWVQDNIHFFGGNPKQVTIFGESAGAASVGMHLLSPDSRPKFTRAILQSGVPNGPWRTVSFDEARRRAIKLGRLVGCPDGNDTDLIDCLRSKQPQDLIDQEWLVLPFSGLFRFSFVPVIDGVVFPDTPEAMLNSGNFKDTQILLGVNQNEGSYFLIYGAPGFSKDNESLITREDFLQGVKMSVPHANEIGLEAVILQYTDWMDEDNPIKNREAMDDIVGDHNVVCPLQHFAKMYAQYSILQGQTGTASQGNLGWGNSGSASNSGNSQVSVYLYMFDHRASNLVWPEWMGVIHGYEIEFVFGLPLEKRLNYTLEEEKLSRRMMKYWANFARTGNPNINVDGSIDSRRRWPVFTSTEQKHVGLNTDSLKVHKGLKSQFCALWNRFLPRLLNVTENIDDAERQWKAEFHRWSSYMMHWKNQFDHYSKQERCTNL

[17] = Metal chelating activity assessed as compound Zn2+ complex formation by measuring maximum absorption wavelength shift at 25 uM incubated for 30 mins by UV-visible spectrophotometry
BV-2 [18] = experiment: Antiinflammatory activity in mouse BV-2 cells assessed as increase in LPS-induced Arg1 level at 10 uM by ELISA; format: functional, cell-based
Acetylcholinesterase = Acetylcholinesterase (Electrophorus electricus, UniProt O42275); experiment: Mixed type inhibition of electric eel AChE by reciprocal Lineweaver-Burk plot analysis
Acetylcholinesterase, sequence (O42275 whole entry): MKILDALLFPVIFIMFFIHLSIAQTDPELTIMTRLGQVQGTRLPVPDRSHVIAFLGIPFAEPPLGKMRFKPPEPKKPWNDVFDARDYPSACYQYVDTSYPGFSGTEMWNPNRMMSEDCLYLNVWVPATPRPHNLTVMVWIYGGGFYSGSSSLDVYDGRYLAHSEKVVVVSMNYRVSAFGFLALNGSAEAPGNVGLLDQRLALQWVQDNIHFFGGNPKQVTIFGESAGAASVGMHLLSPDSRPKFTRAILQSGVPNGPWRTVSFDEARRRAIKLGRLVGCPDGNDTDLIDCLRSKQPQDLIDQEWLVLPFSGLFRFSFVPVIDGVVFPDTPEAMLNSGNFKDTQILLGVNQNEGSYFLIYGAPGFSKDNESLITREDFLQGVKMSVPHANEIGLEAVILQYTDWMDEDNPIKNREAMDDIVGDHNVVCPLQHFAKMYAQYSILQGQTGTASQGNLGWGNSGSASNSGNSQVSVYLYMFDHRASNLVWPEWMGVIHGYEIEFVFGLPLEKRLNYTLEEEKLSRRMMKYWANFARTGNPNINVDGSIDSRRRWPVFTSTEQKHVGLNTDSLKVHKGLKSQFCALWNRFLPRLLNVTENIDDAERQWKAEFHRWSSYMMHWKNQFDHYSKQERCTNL

BV-2 [19] = experiment: Antiinflammatory activity in mouse BV-2 cells assessed as reduction in LPS-induced COX-2 expression at 0.1 to 5 uM by Western blot analysis relative to control; format: functional, cell-based; conditions: dose 0.1-5 µM, DDE = dose-dependent effect
BV-2 [20] = experiment: Antiinflammatory activity in mouse BV-2 cells assessed as […] LPS-induced TNFalpha production at 1 to 10 uM and measured after 24 hrs by ELISA; format: functional, cell-based; conditions: dose 1-10 µM, DDE = dose-dependent effect
BV-2 [21] = experiment: Antiinflammatory activity in mouse BV-2 cells assessed as reduction in LPS-induced iNOS expression at 0.5 uM by Western blot analysis relative to control; format: functional, cell-based
[22] = Cytotoxicity against rat PC12 cells assessed as cell viability at 1 to 10 uM measured after 24 hrs by MTT assay relative to control; format: toxicity, cell-based, PC-12; conditions: dose 1-10 µM, read-out: Activity
[23] = Metal chelating activity assessed as Cu2+-compound complex formation by measuring maximum absorption wavelength shift at 25 uM incubated for 30 mins by UV-Visible spectrophotometry

What does the source list for `C#CCO/N=C(\Cn1ccnc1)c1ccc(C(F)(F)F)cc1`?
viability at 20 µM [1]: 93.7%; EC50 [2]: 8.55 µM

For `CC1(C)Oc2ccc(/C(Cn3ccnc3)=N/OC(=O)/C=C/c3ccccc3F)cc2O1`, which viability at 20 µM [1] is on record?
The viability at 20 µM was 90.8%.

What about the EC50 [2] of the same molecule?
The EC50 was 3.19 µM.

With `CC1(C)Oc2ccc(/C(Cn3ccnc3)=N/OC(=O)c3ccc4ccccc4c3)cc2O1` as the molecule, how does the Activity (BV-2 [3]) read?
The Activity was “Active”.

And the inhibition [4]?
The inhibition was 92%.

And the viability at 20 µM [1]?
The viability at 20 µM was 94.1%.

And the Activity (PC-12 [5])?
Its Activity is 58%.

And the Activity (BV-2 [6])?
Its Activity is “Dde”.

What about the Activity (PC-12 [7]) of the same molecule?
Its Activity is 83%.

What about the Activity [8] of the same molecule?
The Activity was “Active”.

What about the Activity [9] of the same molecule?
Its Activity is 25.5%.

What about the Activity (BV-2 [10]) of the same molecule?
Its Activity is “Active”.

What about the Activity [11] of the same molecule?
Its Activity is “Active”.

And the EC50 [2]?
Its EC50 is 0.57 µM.

And the Papp [12]?
The Papp was 10.7 ×10⁻⁶ cm/s.

What about the Activity [13] of the same molecule?
The Activity was “Active”.

And the solubility [14]?
Its solubility is 316 µg/mL (≈ 738 µM).

What about the Activity [15] of the same molecule?
The Activity was “Active”.

What about the inhibition [16] of the same molecule?
The inhibition was 67%.

What about the Activity [17] of the same molecule?
Its Activity is “Active”.

What about the Activity (BV-2 [18]) of the same molecule?
Its Activity is “Active”.

What about the Ki (Acetylcholinesterase) of the same molecule?
The Ki was 0.308 µM.

And the Activity (BV-2 [19])?
The Activity was “Dde”.

What about the Activity (BV-2 [20]) of the same molecule?
Its Activity is “Dde”.

What about the Activity (BV-2 [21]) of the same molecule?
Its Activity is “Active”.

What about the viability at 24 h, up to 10 µM [22] of the same molecule?
Its viability at 24 h, up to 10 µM is > 95%.

What about the Activity [23] of the same molecule?
The Activity was “Active”.

For `C#CC(C)O/N=C(\Cn1ccnc1)c1ccc2c(c1)OCO2` (centres undefined), which viability at 20 µM [1] is on record?
Its viability at 20 µM is 96.1%.

And the EC50 [2]?
Its EC50 is 5.41 µM.

For `NC(=O)N1c2ccccc2C=Cc2ccccc21` [CARBAMAZEPINE], which Papp [12] is on record?
The Papp was 10.2 ×10⁻⁶ cm/s.

Which viability at 20 µM [1] does the source give for `CC1(C)Oc2ccc(/C(Cn3ccnc3)=N/OC(=O)c3ccc(Cl)cc3)cc2O1` here?
The viability at 20 µM was 90.5%.

And the EC50 [2]?
The EC50 was 5.52 µM.

With `N#Cc1ccc(CO/N=C(\Cn2ccnc2)c2ccc3c(c2)OCO3)cc1` as the molecule, how does the viability at 20 µM [1] read?
Its viability at 20 µM is 91.6%.

What about the EC50 [2] of the same molecule?
Its EC50 is 4.24 µM.

With `C#CCO/N=C(\Cn1ccnc1)c1ccc(OC)cc1` as the molecule, how does the viability at 20 µM [1] read?
The viability at 20 µM was 95.9%.

What about the EC50 [2] of the same molecule?
The EC50 was 9.07 µM.

What does the source list for `Cc1ccc(C(=O)O/N=C(\Cn2ccnc2)c2ccc3c(c2)OC(C)(C)O3)c2ccccc12`?
viability at 20 µM [1]: 94.3%; Activity [9]: 34%; EC50 [2]: 1.79 µM

Which viability at 20 µM [1] does the source give for `CC1(C)Oc2ccc(/C(Cn3ccnc3)=N/OC(=O)/C=C/c3ccc(Br)cc3)cc2O1` here?
The viability at 20 µM was 96.3%.

And the EC50 [2]?
The EC50 was 6.89 µM.

For `CC1(C)Oc2ccc(/C(Cn3ccnc3)=N/OC(=O)c3cccc4ccccc34)cc2O1`, which viability at 20 µM [1] is on record?
Its viability at 20 µM is 91.1%.

What about the Activity [9] of the same molecule?
The Activity was 36.2%.

What about the EC50 [2] of the same molecule?
Its EC50 is 1.62 µM.

For `C#CCO/N=C(\Cn1ccnc1)c1ccc2c(c1)OCO2`, which viability at 20 µM [1] is on record?
Its viability at 20 µM is 92.5%.

What about the EC50 [2] of the same molecule?
Its EC50 is 2.07 µM.

For `CC1(C)Oc2ccc(/C(Cn3ccnc3)=N/OC(=O)Cc3cccc4ccccc34)cc2O1`, which Activity (BV-2 [3]) is on record?
Its Activity is “Active”.

What about the viability at 20 µM [1] of the same molecule?
The viability at 20 µM was 94.8%.

What about the Activity (PC-12 [5]) of the same molecule?
Its Activity is 59%.

What about the Activity (PC-12 [7]) of the same molecule?
Its Activity is 84%.

What about the EC50 [2] of the same molecule?
Its EC50 is 1.02 µM.

What about the Papp [12] of the same molecule?
Its Papp is 9.2 ×10⁻⁶ cm/s.

And the solubility [14]?
Its solubility is 509 µg/mL (≈ 1150 µM).

What about the Activity (BV-2 [20]) of the same molecule?
The Activity was “Dde”.

And the viability at 24 h, up to 10 µM [22]?
The viability at 24 h, up to 10 µM was > 95%.

What does the source list for `C(=C\c1ccccc1)/CO/N=C(\Cn1ccnc1)c1ccc2c(c1)OCO2`?
viability at 20 µM [1]: 96.3%; EC50 [2]: > 20 µM

With `CC1(C)Oc2ccc(/C(Cn3ccnc3)=N/OC(=O)/C=C/c3ccc(F)cc3)cc2O1` as the molecule, how does the viability at 20 µM [1] read?
Its viability at 20 µM is 95.7%.

And the EC50 [2]?
The EC50 was 5.96 µM.

Which viability at 20 µM [1] does the source give for `Cc1ccc(/C=C/C(=O)O/N=C(\Cn2ccnc2)c2ccc3c(c2)OC(C)(C)O3)cc1` here?
The viability at 20 µM was 93.6%.

What about the EC50 [2] of the same molecule?
The EC50 was 6.03 µM.

With `C=CCO/N=C(\Cn1ccnc1)c1ccc2c(c1)OCO2` as the molecule, how does the viability at 20 µM [1] read?
Its viability at 20 µM is 97.8%.

What about the EC50 [2] of the same molecule?
Its EC50 is 3.42 µM.

Which results are given for `CC1(C)Oc2ccc(/C(Cn3ccnc3)=N/OC(=O)c3ccc4ccccc4c3Br)cc2O1`?
viability at 20 µM [1]: 90.8%; EC50 [2]: 6.5 µM; inhibition [16]: 72%

For `C#CCO/N=C(\Cn1ccnc1)c1ccc(F)cc1`, which viability at 20 µM [1] is on record?
Its viability at 20 µM is 93.8%.

What about the EC50 [2] of the same molecule?
Its EC50 is 7.8 µM.

What does the source list for `C#CCO/N=C(\Cn1ccnc1)c1ccc(Br)cc1`?
CC50 [1]: > 20 µM; EC50 [2]: 5.6 µM

With `CC1(C)Oc2ccc(/C(Cn3ccnc3)=N/OC(=O)/C=C/c3ccc(C(F)(F)F)cc3)cc2O1` as the molecule, how does the viability at 20 µM [1] read?
The viability at 20 µM was 92.1%.

What about the Activity [9] of the same molecule?
The Activity was 27.7%.

And the EC50 [2]?
Its EC50 is 1.03 µM.
